According to patent publication US20240124465A1, “MOLECULES AND METHODS RELATED TO TREATMENT OF DISORDERS ASSOCIATED WITH JAK-2 SIGNALING DYSFUNCTION” (ST. JUDE CHILDREN'S RESEARCH HOSPITAL, priority 2020, published 2024):

Key:
Format in all cases: cell-based
JAK1 = molecular target: T1, JAK1 (Homo sapiens, UniProt P23458); assay: Western blot assay, JAK1 protein degradation; conditions: MHH-CALL-4 cells, vehicle control = 100%
T1 construct: endogenous in cells; host or cells: MHH-CALL-4
Method in brief: (§1)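 Degradation is reported as remaining target protein, normalized to ACBT loading control with vehicle-treated cells as 100%. Lysates from MHH-CALL-4 cells were separated on gradient gels and probed by immunoblotting.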

JAK3 = molecular target: T2, JAK3 (Homo sapiens, UniProt P52333); assay: Western blot assay, JAK3 protein degradation; conditions: MHHCALL4; 100 nM, 24 h; MHH-CALL-4 cells; vehicle control = 100%; read-out: Target Protein Degradation (% remaining at 100 nM, 24 h) JAK3
T2 construct: endogenous in cells; host or cells: MHH-CALL-4
T2 sequence (P52333 1-1124): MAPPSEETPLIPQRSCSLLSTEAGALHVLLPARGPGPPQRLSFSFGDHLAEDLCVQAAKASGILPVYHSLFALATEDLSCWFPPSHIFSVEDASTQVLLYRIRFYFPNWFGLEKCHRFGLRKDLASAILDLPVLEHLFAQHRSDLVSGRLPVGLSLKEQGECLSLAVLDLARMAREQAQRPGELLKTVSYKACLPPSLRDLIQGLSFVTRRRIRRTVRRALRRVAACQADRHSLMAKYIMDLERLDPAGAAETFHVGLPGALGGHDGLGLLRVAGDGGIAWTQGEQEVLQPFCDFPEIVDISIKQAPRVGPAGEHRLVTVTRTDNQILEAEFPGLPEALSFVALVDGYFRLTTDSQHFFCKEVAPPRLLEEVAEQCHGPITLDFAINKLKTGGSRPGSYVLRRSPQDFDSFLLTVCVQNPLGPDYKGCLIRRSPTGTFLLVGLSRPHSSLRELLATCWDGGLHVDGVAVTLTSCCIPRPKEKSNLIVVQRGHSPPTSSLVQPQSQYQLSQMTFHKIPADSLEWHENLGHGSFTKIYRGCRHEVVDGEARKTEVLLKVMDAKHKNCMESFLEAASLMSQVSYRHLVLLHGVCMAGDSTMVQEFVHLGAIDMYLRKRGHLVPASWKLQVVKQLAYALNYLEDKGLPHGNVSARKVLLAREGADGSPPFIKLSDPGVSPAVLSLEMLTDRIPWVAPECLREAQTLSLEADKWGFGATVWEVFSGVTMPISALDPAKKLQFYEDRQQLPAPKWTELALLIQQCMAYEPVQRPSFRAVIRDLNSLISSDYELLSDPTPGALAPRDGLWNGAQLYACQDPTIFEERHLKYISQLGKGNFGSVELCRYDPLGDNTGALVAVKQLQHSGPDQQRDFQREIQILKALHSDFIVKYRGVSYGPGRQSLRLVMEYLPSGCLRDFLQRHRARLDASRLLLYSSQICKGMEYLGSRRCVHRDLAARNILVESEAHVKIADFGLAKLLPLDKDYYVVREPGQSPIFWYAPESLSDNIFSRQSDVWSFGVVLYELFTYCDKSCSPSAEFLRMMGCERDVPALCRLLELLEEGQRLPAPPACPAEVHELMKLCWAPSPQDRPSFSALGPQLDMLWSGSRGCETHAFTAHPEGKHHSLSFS
Method in brief: as §1

IKZF1 = molecular target: T3, IKZF1 (Homo sapiens, UniProt Q13422); assay: Western blot assay, IKZF1 neosubstrate degradation; conditions: MHH-CALL-4 cells, vehicle control = 100%
T3 construct: endogenous in cells; host or cells: MHH-CALL-4
Procedure: (§2) Western blot assay: MHH-CALL-4 Cells were washed twice with ice-cold PBS and lysed in RIPA lysis buffer (Sigma) freshly supplemented with Halt™ Protease Inhibitor Cocktail (ThermoFisher) for 15 minutes on ice. The cell pellet was removed by centrifugation at 13,000 g at 4° C. for 15 minutes. Protein concentration was measured by BCA assay (Thermo Fisher Scientific). Proteins were denatured in NuPAGE LDS 4× sample buffer supplemented with reducing agents (Invitrogen). Typically, 10-20 μg of total protein was loaded per lane on a 4%-12% NUPAGE Bis-Tris gradient gel (Invitrogen) and analyzed by standard immunoblotting and imaged using Li—COR Odyssey CLx (LI-COR Biotechnology, Lincoln, NE). To access the protein degradation, the signal of target protein was normalized by the signal of ACBT and the signal of vehicle control was set as 100%. Primary antibodies used were: JAK1 (Cell Signaling #3332S), JAK2 (#3230S), JAK3 (#8827S), TYK2 (#9312S), GSPT1 (#14980S), CRBN (#71810S), IKZF1 (Santa Cruz Biotechnology, SC-398265) and ACBT (Santa Cruz Biotechnology, SC-47778).

TYK2 = molecular target: T4, TYK2 (Homo sapiens, UniProt P29597); assay: Western blot assay, TYK2 protein degradation; conditions: MHH-CALL-4 cells, vehicle control = 100%
T4 construct: endogenous in cells; host or cells: MHH-CALL-4
Procedure: as §2

GSPT1 = molecular target: T5, GSPT1 (Homo sapiens, UniProt P15170); assay: Western blot assay, GSPT1 neosubstrate degradation; conditions: MHHCALL4; 100 nM, 24 h; MHH-CALL-4 cells; vehicle control = 100%
T5 construct: endogenous in cells; host or cells: MHH-CALL-4
Method in brief: as §1

MHH-CALL-4 cells = assay: Cytotoxicity assay (resazurin, 72 hours); design: AUC: unit not given beside the values; conditions: for EC50: MHHCALL4, resazurin; for AUC: area under the dose-response curve
Method in brief: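 Cells grown in RPMI1640 with 10% FBS, 2×10⁵ per well, were exposed to pin-transferred compounds in triplicate for 72 h at 37 °C, 5% CO2. Viability was read after 4 h resazurin incubation. Dose-response AUC was calculated per compound; selected data were fitted by non-linear regression.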

JAK2 = assay: Western blot assay, JAK2 protein degradation; conditions: MHH-CALL-4 cells, vehicle control = 100%
Method in brief: as §1

T4 sequence (P29597 whole entry): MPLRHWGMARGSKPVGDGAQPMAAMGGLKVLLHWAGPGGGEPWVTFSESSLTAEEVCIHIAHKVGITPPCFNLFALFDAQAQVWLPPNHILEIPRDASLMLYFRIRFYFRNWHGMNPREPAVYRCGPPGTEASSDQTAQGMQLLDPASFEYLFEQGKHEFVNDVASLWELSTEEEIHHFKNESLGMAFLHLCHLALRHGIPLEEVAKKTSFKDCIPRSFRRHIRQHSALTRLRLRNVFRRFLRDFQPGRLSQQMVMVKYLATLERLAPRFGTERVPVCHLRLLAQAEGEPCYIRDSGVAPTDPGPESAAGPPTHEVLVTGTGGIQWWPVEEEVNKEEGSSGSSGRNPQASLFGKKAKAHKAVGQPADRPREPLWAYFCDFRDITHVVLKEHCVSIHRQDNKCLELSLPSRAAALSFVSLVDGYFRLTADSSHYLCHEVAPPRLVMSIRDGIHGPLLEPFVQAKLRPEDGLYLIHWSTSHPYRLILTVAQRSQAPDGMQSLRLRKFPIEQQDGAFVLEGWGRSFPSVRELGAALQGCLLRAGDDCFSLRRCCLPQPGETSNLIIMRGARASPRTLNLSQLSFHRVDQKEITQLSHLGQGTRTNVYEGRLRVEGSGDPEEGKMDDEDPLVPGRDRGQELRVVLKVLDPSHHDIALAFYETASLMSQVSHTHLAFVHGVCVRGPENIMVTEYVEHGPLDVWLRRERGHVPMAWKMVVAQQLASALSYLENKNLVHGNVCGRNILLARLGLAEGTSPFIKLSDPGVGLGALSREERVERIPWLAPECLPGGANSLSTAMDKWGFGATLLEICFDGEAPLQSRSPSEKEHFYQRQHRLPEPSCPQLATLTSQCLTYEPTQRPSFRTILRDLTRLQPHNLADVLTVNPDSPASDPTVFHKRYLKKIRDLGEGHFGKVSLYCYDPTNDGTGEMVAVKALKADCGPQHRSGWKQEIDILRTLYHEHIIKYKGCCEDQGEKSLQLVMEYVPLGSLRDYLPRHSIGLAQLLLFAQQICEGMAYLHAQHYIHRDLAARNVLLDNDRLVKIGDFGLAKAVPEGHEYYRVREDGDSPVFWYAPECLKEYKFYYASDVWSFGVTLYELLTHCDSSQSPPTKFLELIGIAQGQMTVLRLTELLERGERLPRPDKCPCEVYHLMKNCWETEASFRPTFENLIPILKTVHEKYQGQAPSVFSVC
T5 sequence (P15170 whole entry): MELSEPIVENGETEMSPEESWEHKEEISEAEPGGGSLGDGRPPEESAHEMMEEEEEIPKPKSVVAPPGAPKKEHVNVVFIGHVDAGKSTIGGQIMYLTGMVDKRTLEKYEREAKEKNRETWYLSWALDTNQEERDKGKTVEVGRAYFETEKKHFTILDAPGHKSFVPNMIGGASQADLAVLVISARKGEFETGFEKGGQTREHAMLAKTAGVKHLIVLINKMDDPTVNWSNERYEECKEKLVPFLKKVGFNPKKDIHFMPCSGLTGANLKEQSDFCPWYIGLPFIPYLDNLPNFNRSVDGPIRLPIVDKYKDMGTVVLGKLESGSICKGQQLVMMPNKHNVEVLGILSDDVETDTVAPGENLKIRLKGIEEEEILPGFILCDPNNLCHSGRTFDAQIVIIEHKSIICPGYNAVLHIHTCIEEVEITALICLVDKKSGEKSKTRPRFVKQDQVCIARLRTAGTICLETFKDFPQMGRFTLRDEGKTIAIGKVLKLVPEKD
T3 sequence (Q13422 whole entry): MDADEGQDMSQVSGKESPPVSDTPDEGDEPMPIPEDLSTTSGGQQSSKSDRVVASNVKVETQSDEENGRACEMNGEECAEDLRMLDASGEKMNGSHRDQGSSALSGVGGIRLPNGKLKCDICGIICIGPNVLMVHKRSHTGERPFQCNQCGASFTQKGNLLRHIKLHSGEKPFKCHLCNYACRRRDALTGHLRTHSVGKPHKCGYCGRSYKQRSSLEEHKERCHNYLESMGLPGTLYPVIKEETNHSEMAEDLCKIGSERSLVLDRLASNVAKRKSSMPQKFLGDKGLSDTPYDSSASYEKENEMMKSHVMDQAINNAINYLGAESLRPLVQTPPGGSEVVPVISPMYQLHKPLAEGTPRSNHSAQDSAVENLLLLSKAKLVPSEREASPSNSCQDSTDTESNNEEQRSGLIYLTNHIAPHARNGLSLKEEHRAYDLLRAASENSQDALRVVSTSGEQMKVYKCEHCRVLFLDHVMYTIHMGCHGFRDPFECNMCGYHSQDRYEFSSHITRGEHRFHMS
T1 sequence (P23458 whole entry): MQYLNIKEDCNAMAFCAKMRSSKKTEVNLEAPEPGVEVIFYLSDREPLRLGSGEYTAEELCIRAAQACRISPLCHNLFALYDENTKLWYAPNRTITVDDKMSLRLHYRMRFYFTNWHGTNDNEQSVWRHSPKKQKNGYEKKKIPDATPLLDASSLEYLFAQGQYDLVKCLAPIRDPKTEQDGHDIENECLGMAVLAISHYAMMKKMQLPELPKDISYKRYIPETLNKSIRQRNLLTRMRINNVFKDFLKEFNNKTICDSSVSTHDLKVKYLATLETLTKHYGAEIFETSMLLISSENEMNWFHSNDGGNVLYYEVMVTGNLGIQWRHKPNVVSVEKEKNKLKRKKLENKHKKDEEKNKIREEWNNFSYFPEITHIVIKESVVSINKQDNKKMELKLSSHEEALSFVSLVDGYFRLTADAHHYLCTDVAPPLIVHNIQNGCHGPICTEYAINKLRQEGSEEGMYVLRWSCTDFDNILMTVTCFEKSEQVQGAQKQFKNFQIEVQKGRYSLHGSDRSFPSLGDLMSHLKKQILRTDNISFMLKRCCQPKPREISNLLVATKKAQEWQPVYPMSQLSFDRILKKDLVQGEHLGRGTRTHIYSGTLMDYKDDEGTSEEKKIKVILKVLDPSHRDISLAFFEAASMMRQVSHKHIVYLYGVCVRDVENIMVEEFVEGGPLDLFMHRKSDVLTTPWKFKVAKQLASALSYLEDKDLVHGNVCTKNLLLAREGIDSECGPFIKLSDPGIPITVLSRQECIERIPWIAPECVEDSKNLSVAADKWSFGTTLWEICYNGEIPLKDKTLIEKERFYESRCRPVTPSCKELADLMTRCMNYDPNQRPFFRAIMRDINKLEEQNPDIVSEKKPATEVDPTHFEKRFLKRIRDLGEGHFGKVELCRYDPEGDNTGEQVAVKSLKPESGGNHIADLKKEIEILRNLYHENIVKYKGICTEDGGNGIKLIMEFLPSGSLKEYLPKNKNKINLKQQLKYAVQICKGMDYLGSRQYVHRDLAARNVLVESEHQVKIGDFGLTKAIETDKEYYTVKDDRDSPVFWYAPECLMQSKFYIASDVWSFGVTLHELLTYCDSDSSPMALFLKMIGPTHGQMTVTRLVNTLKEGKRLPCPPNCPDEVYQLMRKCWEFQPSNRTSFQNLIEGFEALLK

SMILES	Target Protein Degradation (% remaining at 100 nM, 24 h) JAK1 (JAK1) [% remaining]	remaining activity at 0.1 µM (JAK3) [%]	Neosubstrate Degradation (% remaining at 100 nM, 24 h) IKZF1 (IKZF1) [% remaining]	Target Protein Degradation (% remaining at 100 nM, 24 h) TYK2 (TYK2) [% remaining]	remaining activity at 0.1 µM (GSPT1) [%]	EC50 (MHH-CALL-4 cells) [µM]	AUC (MHH-CALL-4 cells)	Target Protein Degradation (% remaining at 100 nM, 24 h) JAK2 (JAK2) [% remaining]
CCS(=O)(=O)N1CC(CC#N)(n2cc(-c3nc(Nc4ccc(C(=O)NCCCCOc5ccc(C6CCC(=O)NC6=O)cc5)cc4)nc4[nH]ccc34)cn2)C1 (stereo not shown) [Compound 5]	124	65	79	142	71	0.0022	124	22
CCS(=O)(=O)N1CC(CC#N)(n2cc(-c3nc(Nc4ccc(C(=O)NCCCN5CCN(c6ccc(C7CCC(=O)NC7=O)cc6)CC5)cc4)nc4[nH]ccc34)cn2)C1 (stereo not shown) [Compound 10]	86	46	87	118	109	2.58	114	25
CCS(=O)(=O)N1CC(CC#N)(n2cc(-c3nc(Nc4ccc(C(=O)NCCNC(=O)COc5ccc(C6CCC(=O)NC6=O)cc5)cc4)nc4[nH]ccc34)cn2)C1 (stereo not shown) [Compound 17]	105	102	96	88	110	> 0.784		120
CCS(=O)(=O)N1CC(CC#N)(n2cc(-c3nc(Nc4ccc(C(=O)NCCCNC(=O)COc5ccc(C6CCC(=O)NC6=O)cc5)cc4)nc4[nH]ccc34)cn2)C1 (stereo not shown) [Compound 18]	83	80	105	122	117	> 0.812	95	82
CCS(=O)(=O)N1CC(CC#N)(n2cc(-c3nc(Nc4ccc(C(=O)NCCN5CCN(c6ccc(C7CCC(=O)NC7=O)cc6)CC5)cc4)nc4[nH]ccc34)cn2)C1 (stereo not shown) [Compound 37, 4-((4-(1-(3-(cyanomethyl)-1-(ethylsulfonyl)azetidin-3-yl)-1H-pyrazol-4-yl)-7H-pyrrolo[2,3-d]pyrimidin-2-yl)amino)-N-(2-(4-(4-(2,6-dioxopiperidin-3-yl)phenyl)piperazin-1-yl)ethyl)benzamide]	120	58		121		0.0027	149	26
CCS(=O)(=O)N1CC(CC#N)(n2cc(-c3nc(Nc4ccc(C(=O)NCCCCOc5cccc(C6CCC(=O)NC6=O)c5)cc4)nc4[nH]ccc34)cn2)C1 (stereo not shown) [Compound 41, 4-((4-(1-(3-(cyanomethyl)-1-(ethylsulfonyl)azetidin-3-yl)-1H-pyrazol-4-yl)-7H-pyrrolo[2,3-d]pyrimidin-2-yl)amino)-N-(4-(3-(2,6-dioxopiperidin-3-yl)phenoxy)butyl)benzamide]	97	46		125		0.0512	202	28
CCS(=O)(=O)N1CC(CC#N)(n2cc(-c3nc(Nc4ccc(C(=O)NCCCCOc5ccc(C6CCC(=O)N(C)C6=O)cc5)cc4)nc4[nH]ccc34)cn2)C1 (stereo not shown) [Compound 47, 4-((4-(1-(3-(cyanomethyl)-1-(ethylsulfonyl)azetidin-3-yl)-1H-pyrazol-4-yl)-7H-pyrrolo[2,3-d]pyrimidin-2-yl)amino)-N-(4-(4-(1-methyl-2,6-dioxopiperidin-3-yl)phenoxy)butyl)benzamide]	114	101		89	86	0.00335		128
